# “And” between values parts separate entries of the source, which are not always exact repeats. Identical values can stand only once. Toxic doses and inconclusive results are not listed.
# Tested on: P388 leukemia ip, CD2F1 mice, survival T/C
# Experiment: NCI In Vivo Anticancer Drug Screen. Data for tumor model P388 Leukemia (intraperitoneal) in CD2F1 (CDF1) mice
# Details: endpoint: median survival time, higher = longer survival
# In short: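 Mice carrying the transplanted tumor received test compound or vehicle. Survival was recorded in each group, and the value is the treated-group measurement divided by that of the vehicle-treated control group.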
# [1] = dose: 50.0 mg/kg/injection, schedule: Q01DX009 (ip), vehicle: saline
# [2] = dose: 100.0 mg/kg/injection, schedule: Q01DX009 (ip), vehicle: saline
# [3] = dose: 100.0 mg/kg/injection, schedule: Q01DX001 (ip), vehicle: saline with Tween-80
# [4] = dose: 200.0 mg/kg/injection, schedule: Q01DX001 (ip), vehicle: saline with Tween-80
# [5] = dose: 50.0 mg/kg/injection, schedule: Q01DX005 (ip), vehicle: Klucel (hydroxypropylcellulose) (HPC)
# [6] = dose: 100.0 mg/kg/injection, schedule: Q01DX005 (ip), vehicle: Klucel (hydroxypropylcellulose) (HPC)
# [7] = dose: 200.0 mg/kg/injection, schedule: Q01DX005 (ip), vehicle: Klucel (hydroxypropylcellulose) (HPC)
smiles,measurement,setting,value
CC1(C)N=C(N)N=C(N)N1c1cccc(OCCCOc2ccccc2)c1,T/C,"dose: 12.5 mg/kg/injection, schedule: Q01DX001 (ip), vehicle: Klucel (hydroxypropylcellulose) (HPC)",101 % of control
same,T/C,"dose: 25.0 mg/kg/injection, schedule: Q01DX001 (ip), vehicle: Klucel (hydroxypropylcellulose) (HPC)",100 % of control
same,T/C,"dose: 50.0 mg/kg/injection, schedule: Q01DX001 (ip), vehicle: Klucel (hydroxypropylcellulose) (HPC)",102 % of control
CC1=NC(=O)C(N=O)C(=O)N1 (stereo not given),T/C,"dose: 100.0 mg/kg/injection, schedule: Q04DX002 (ip), vehicle: saline with Tween-80",99 % of control
same,T/C,"dose: 200.0 mg/kg/injection, schedule: Q04DX002 (ip), vehicle: saline with Tween-80",97 % of control
COC(=O)c1cc(-c2ccc(Cl)cc2)n2c(N)nnc2n1,T/C,"dose: 60.0 mg/kg/injection, schedule: Q01DX005 (ip), vehicle: saline with Tween-80",100 % of control
same,T/C,"dose: 120.0 mg/kg/injection, schedule: Q01DX005 (ip), vehicle: saline with Tween-80",100 % of control
same,T/C,"dose: 240.0 mg/kg/injection, schedule: Q01DX005 (ip), vehicle: saline with Tween-80",104 % of control
NC(=O)N/N=C1\CSCc2ccccc21,T/C,"dose: 25.0 mg/kg/injection, schedule: Q01DX009 (ip), vehicle: other",93 % of control
same,T/C,"dose: 50.0 mg/kg/injection, schedule: Q01DX009 (ip), vehicle: other",92 % of control
same,T/C,"dose: 100.0 mg/kg/injection, schedule: Q01DX009 (ip), vehicle: other",93 % of control
same,T/C,"dose: 200.0 mg/kg/injection, schedule: Q01DX009 (ip), vehicle: other",99 % of control
same,T/C,"dose: 400.0 mg/kg/injection, schedule: Q01DX009 (ip), vehicle: other",117 % of control
O=C(O)CC(NC(=O)CCl)C(=O)O (stereo not given),T/C,[1],99 % of control and 101 % of control
same,T/C,[2],100 % of control and 101 % of control
same,T/C,"dose: 200.0 mg/kg/injection, schedule: Q01DX009 (ip), vehicle: saline",101 % of control and 92 % of control
O=S(=O)(O)CCCBr,T/C,"dose: 100.0 mg/kg/injection, schedule: Q01DX009 (ip), vehicle: saline with Tween-80",100 % of control
same,T/C,"dose: 200.0 mg/kg/injection, schedule: Q01DX009 (ip), vehicle: saline with Tween-80",104 % of control
same,T/C,"dose: 400.0 mg/kg/injection, schedule: Q01DX009 (ip), vehicle: saline with Tween-80",95 % of control
CC1(C)NC(C(=O)O)Cc2c1[nH]c1ccccc21 (stereo not given),T/C,"dose: 25.0 mg/kg/injection, schedule: Q01DX009 (ip), vehicle: saline",102 % of control
same,T/C,[1],91 % of control
same,T/C,[2],94 % of control
COc1cc2c(cc1C(C)c1cc(C)c(OC)c(C)c1)OCO2 (stereo not given),T/C,"dose: 50.0 mg/kg/injection, schedule: Q01DX005 (ip), vehicle: saline with Tween-80",100 % of control
same,T/C,"dose: 100.0 mg/kg/injection, schedule: Q01DX005 (ip), vehicle: saline with Tween-80",106 % of control
same,T/C,"dose: 200.0 mg/kg/injection, schedule: Q01DX005 (ip), vehicle: saline with Tween-80",101 % of control
CCCCC/C(=N\Nc1ccc([N+](=O)[O-])cc1[N+](=O)[O-])c1ccccc1,T/C,"dose: 50.0 mg/kg/injection, schedule: Q01DX001 (ip), vehicle: saline with Tween-80",105 % of control
same,T/C,[3],95 % of control
same,T/C,[4],95 % of control
CC(=O)O.CC(=O)[O-].CC(=O)[O-].[Co+3].[NH-]CC[NH-].[NH-]CC[NH-],T/C,[2],100 % of control
NC(=O)c1ccccc1Sc1ccccc1C(N)=O,T/C,[3],100 % of control
same,T/C,[4],100 % of control
same,T/C,"dose: 400.0 mg/kg/injection, schedule: Q01DX001 (ip), vehicle: saline with Tween-80",100 % of control
CSCCC(NC(=O)C(Cc1c[nH]c2ccccc12)NC(=O)CCNC(=O)OC(C)(C)C)C(=O)NC(CC(=O)O)C(=O)NC(Cc1ccccc1)C(N)=O (stereo not given),T/C,[5],98 % of control
same,T/C,[6],100 % of control
same,T/C,[7],97 % of control
CC1CN1P(=S)(N1CC1C)N1CC1C (stereo not given),T/C,"dose: 2.5 mg/kg/injection, schedule: Q01DX010 (ip), vehicle: saline",110 % of control
same,T/C,"dose: 5.0 mg/kg/injection, schedule: Q01DX010 (ip), vehicle: saline",95 % of control
same,T/C,"dose: 10.0 mg/kg/injection, schedule: Q01DX010 (ip), vehicle: saline",115 % of control
CCOP(=S)(N/N=C/c1ccc(Br)s1)OCC,T/C,[5],101 % of control
same,T/C,[6],106 % of control
same,T/C,[7],104 % of control
C/C=C/N=NNc1ccccc1OC,T/C,"dose: 100.0 mg/kg/injection, schedule: Q04DX003 (ip), vehicle: saline + Tween-80 + alcohol",107 % of control
C[S+](C)CCCNC(=O)c1csc(-c2csc(N)n2)n1,T/C,"dose: 6.25 mg/kg/injection, schedule: Q01DX005 (ip), vehicle: water",100 % of control
same,T/C,"dose: 12.5 mg/kg/injection, schedule: Q01DX005 (ip), vehicle: water",96 % of control
same,T/C,"dose: 25.0 mg/kg/injection, schedule: Q01DX005 (ip), vehicle: water",96 % of control
